Structures can show the parent of a compound that is named as a salt.
What was measured:
human RORγt LBD = biological target: T1, human RORγt LBD (Homo sapiens, UniProt P51449); experiment: RORγt reporter assay (GAL4-RORγt LBD luciferase in HEK293T cells); format: cell-based; settings: for IC50: 24 hours compound treatment; for inhibition at 6 µM: HEK-293T, read-out: RORγt reporter Assay, % inhibition @ 6 μM, HEK293T cells, 6 μM compound
T1 construct: expressed in transfected cells
T1 sequence (P51449 258-518): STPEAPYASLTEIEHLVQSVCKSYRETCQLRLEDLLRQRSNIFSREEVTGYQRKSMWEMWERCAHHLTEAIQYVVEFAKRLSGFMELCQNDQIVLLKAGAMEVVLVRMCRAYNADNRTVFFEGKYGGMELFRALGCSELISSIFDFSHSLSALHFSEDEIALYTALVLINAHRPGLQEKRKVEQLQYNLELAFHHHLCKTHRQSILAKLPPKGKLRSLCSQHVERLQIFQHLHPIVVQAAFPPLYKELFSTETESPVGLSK
From the text: A reporter assay was used to test functional activity of RORγt modulatory compounds on transcriptional activation driven by the RORγt LBD. Cells used in the assay were co-transfected with two constructs. The first construct, pBIND-RORγt LBD, contained the wild type human RORγt LBD fused to the DNA binding domain of the GAL4 protein. The second construct, pGL4.31 (Promega Cat no. C935A), contained multiple GAL4 responsive DNA elements upstream of firefly luciferase. […] The mutant construct was called pBIND-RORγt-AF2.
The pBIND vector contains the GAL4 DNA Binding Domain (GAL4 DBD) and the renilla luciferase gene under control of the SV40 promoter. Renilla luciferase expression serves as a control for transfection efficiency and cell viability.
The reporter assay was performed by transiently transfecting HEK293T cells with 5 ng of pBIND-RORγt LBD or pBIND-RORγt LBD-AF2 and 5 μg pGL4.31 (Promega Cat no. C935A) using Fugene 6 (Invitrogen Cat no. E2691) at a 1:6 ratio of DNA:Fugene 6 in a T-75 flask in which cells were at least 80% confluent. Twenty four hours after bulk transfection, cells were plated into 96-well plates at 50,000 cells/well in phenol-red free DMEM containing 5% Lipid Reduced FCS and Pen/Strep. Six hours after plating, cells were treated with compounds for 24 hours. Media was removed and cells were lysed with 50 μL 1× Glo Lysis Buffer (Promega). Dual Glo Luciferase Reagent (50 μL/well) was then added and firefly luciferase luminescence was read on an Envision after a ten minute incubation. Finally, Stop and Glo reagent (50 μL/well) was added and renilla luciferase luminescence was read on an Envision after a ten minute incubation. To calculate the effect of compounds on RORγt activity, the ratio of firefly to renilla luciferase was determined and plotted against compound concentration. Agonist compounds increase RORγt-driven luciferase expression, and antagonist or inverse agonist compounds decrease luciferase expression.

[1] = biological target: T2, human RORγt ligand binding domain (RORγt LBD) (Homo sapiens, UniProt P51449); experiment: RORγt ThermoFluor assay (thermal shift, ligand binding affinity); settings: estimated from concentration response of thermal shift
T2 construct: His-tag (N); TurboTEV protease cleavage site (ENLYFQG) (N); made in house; host or cells: E. coli (pHIS1, modified pET vector)
T2 sequence (P51449 with tags, fused parts or gaps): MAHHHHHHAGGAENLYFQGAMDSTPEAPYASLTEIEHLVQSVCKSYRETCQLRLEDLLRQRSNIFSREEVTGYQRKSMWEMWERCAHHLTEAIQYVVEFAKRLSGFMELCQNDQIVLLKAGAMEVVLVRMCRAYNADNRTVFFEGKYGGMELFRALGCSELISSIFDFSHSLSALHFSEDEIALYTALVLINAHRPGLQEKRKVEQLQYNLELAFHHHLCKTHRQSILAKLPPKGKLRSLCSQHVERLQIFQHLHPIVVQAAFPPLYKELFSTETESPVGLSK
Description: This approach is applicable to a wide variety of systems, and rigorous in theoretical interpretation through quantitation of equilibrium binding constants (KD).
The shift in the melting point described as a ΔTm is proportional to the concentration and affinity of the ligand.
RORγt ThermoFluor® Assay Construct
Protein and compound solutions are dispensed into black 384-well polypropylene PCR microplates (Abgene) and overlayed with silicone oil (1 μL Fluka, type DC 200) to prevent evaporation.
Fluorescence was measured by continuous illumination with UV light (Hamamatsu LC6) supplied via fiber optic and filtered through a band-pass filter (380-400 nm; >6 OD cutoff). Fluorescence emission of the entire 384-well plate was detected by measuring light intensity using a CCD camera (Sensys, Roper Scientific) filtered to detect 500±25 nm, resulting in simultaneous and independent readings of all 384 wells. Images were collected at each temperature, and the sum of the pixel intensity in a given area of the assay plate was recorded versus temperature. Reference wells contained RORγt without compounds, and the assay conditions were as follows: • 0.065 mg/mL RORγt • 60 μM 1,8-ANS • 100 mM Hepes, pH 7.0 • 10 mM NaCl • 2.5 mM GSH • 0.002% Tween-20
Project compounds were arranged in a pre-dosed mother plate (Greiner Bio-one) wherein compounds are serially diluted in 100% DMSO by 1:2 from a high concentration of 10 mM over 12 columns within a series (column 12 is a reference well containing DMSO, no compound).
The compounds were robotically dispensed directly into assay plates (1×=[…]) using a Hummingbird capillary liquid handling instrument (Digilab). Following compound dispense, protein and dye in buffer was added to achieve the final assay volume of 3 μL, followed by 1 μL of silicone oil.

SMILES | IC50 (human RORγt LBD; HEK293T cells) | inhibition at 6 µM (human RORγt LBD) | Kd [1] | RORγt reporter Assay, % inhibition @ 6 μM (human RORγt LBD; HEK293T cells, 6 μM compound, 6 µM)
COc1cccc(C(O)(c2cccnc2)c2ccc3ncc(-c4ccccc4)c(Cl)c3c2)c1 (stereo not drawn) [Example 58, (4-Chloro-3-phenylquinolin-6-yl)(3-methoxyphenyl)pyridin-3-ylmethanol] | ~6 µM | 40% | 2.2 µM | –
COc1nc2ccc(C(O)(c3cccnc3)c3cccc(Cl)c3)cc2c(OC)c1-c1ccccc1 (stereo not drawn) [Example 79, (3-Chlorophenyl)(2,4-dimethoxy-3-phenylquinolin-6-yl)pyridin-3-ylmethanol•TFA] | 1.2 µM | 73% | 0.51 µM | –
OC(c1ccc(Cl)nc1)(c1cccc(Cl)c1)c1ccc2ncc(-c3ccccc3)c(Cl)c2c1 (stereo not drawn) [Example 60, (3-Chlorophenyl)(4-chloro-3-phenylquinolin-6-yl)(6-chloropyridin-3-yl)methanol] | ~1 µM | 86% | 1.3 µM | –
CCCCc1c(-c2ccccc2)cnc2ccc(C(O)(c3ccncc3)c3cncn3C)cc12 (stereo not drawn) [Example 83, (4-Butyl-3-phenylquinolin-6-yl)(1-methyl-1H-imidazol-5-yl)pyridin-4-ylmethanol•TFA] | > 6 µM | -3% | 4.2 µM | –
Cn1cncc1C(O)(c1ccncc1)c1ccc2nc(N3CCN(c4ccccc4)CC3)c(-c3ccccc3)c(Cl)c2c1 (stereo not drawn) [Example 77, [4-Chloro-3-phenyl-2-(4-phenylpiperazin-1-yl)quinolin-6-yl](1-methyl-1H-imidazol-5-yl)pyridin-4-ylmethanol•TFA] | ~4 µM | 75% | 1.1 µM | –
CCOc1nc2ccc(C(O)(c3cccnc3)c3cccc(Cl)c3)cc2c(Cl)c1-c1ccccc1 (stereo not drawn) [Example 81, (4-Chloro-2-ethoxy-3-phenylquinolin-6-yl)(3-chlorophenyl)pyridin-3-ylmethanol•TFA] | 0.32 µM | 93% | 0.17 µM | –
CN(C)c1ccc(C(O)(c2ccc3nc(Cl)c(-c4ccccc4)c(Cl)c3c2)c2cncn2C)cn1 (stereo not drawn) [Example 11, (2,4-Dichloro-3-phenylquinolin-6-yl)[6-(dimethylamino)pyridin-3-yl](1-methyl-1H-imidazol-5-yl)methanol•TFA] | 4.2 µM | 75% | 1.1 µM | –
CCCCc1c(-c2ccccc2)c(Cl)nc2ccc(C(O)(c3ccncc3)c3cncn3C)cc12 (stereo not drawn) [Example 78, (4-Butyl-2-chloro-3-phenylquinolin-6-yl)(1-methyl-1H-imidazol-5-yl)pyridin-4-ylmethanol•TFA] | ~2 µM | 92% | 0.27 µM | –

Results, then the compound that gave them:

IC50 (human RORγt LBD; HEK293T cells) | inhibition at 6 µM (human RORγt LBD) | Kd [1] | RORγt reporter Assay, % inhibition @ 6 μM (human RORγt LBD; HEK293T cells, 6 μM compound, 6 µM) | SMILES
> 6 µM | 49% | 1.2 µM | – | OC(c1cccnc1)(c1ccc2nc(Cl)c(-c3ccccc3)c(Cl)c2c1)C1CCCNC1 (stereo not drawn) [Example 93, (2,4-Dichloro-3-phenylquinolin-6-yl)(piperidin-3-yl)pyridin-3-ylmethanol•TFA]
0.13 µM | 112% | 0.077 µM | – | Cc1nc2cc(C(O)(c3ccc4nc(Cl)c(-c5ccccc5)c(Cl)c4c3)c3cncn3C)ccc2o1 (stereo not drawn) [Example 146, (2,4-Dichloro-3-phenylquinolin-6-yl)(1-methyl-1H-imidazol-5-yl)(2-methylbenzo[d]oxazol-5-yl)methanol]
> 6 µM | 43% | 2.4 µM | – | CN1CCCC(C(O)(c2cccnc2)c2ccc3nc(Cl)c(-c4ccccc4)c(Cl)c3c2)C1 (stereo not drawn) [Example 94, (2,4-Dichloro-3-phenylquinolin-6-yl)(1-methylpiperidin-3-yl)pyridin-3-ylmethanol•TFA]
0.52 µM | 102% | 0.26 µM | – | Cn1nncc1C(O)(c1ccc(Cl)cc1)c1ccc2nc(Cl)c(-c3ccccc3)c(Cl)c2c1 (stereo not drawn) [Example 144, (4-Chlorophenyl)(2,4-dichloro-3-phenylquinolin-6-yl)(1-methyl-1H-1,2,3-triazol-5-yl)methanol]
0.81 µM | – | 0.76 µM | 91% | Cn1cncc1C(O)(c1ccc2nc(C(F)(F)F)c(-c3ccccc3)c(C(F)(F)F)c2c1)c1ccccn1 (single isomer, unassigned) [Example 185c, (1-Methyl-1H-imidazol-5-yl)(3-phenyl-2,4-bis(trifluoromethyl)quinolin-6-yl)(pyridin-2-yl)methanol]
1.5 µM | 94% | 3.4 µM | – | Cc1cc(C(O)(c2ccc(C(F)(F)F)nc2)c2cncn2C)cc2c(C#N)c(-c3cccc(F)c3)c(C#N)nc12 (single isomer, unassigned) [Example 176b, 3-(3-Fluorophenyl)-6-(hydroxy(1-methyl-1H-imidazol-5-yl)(6-(trifluoromethyl)pyridin-3-yl)methyl)-8-methylquinoline-2,4-dicarbonitrile]
1.3 µM | 98% | 6.6 µM | – | COc1nc2c(C)cc(C(O)(c3ccc(C(F)(F)F)nc3)c3cncn3C)cc2c(C#N)c1-c1cccc(F)c1 (single isomer, unassigned) [Example 179b, 3-(3-Fluorophenyl)-6-(hydroxy(1-methyl-1H-imidazol-5-yl)(6-(trifluoromethyl)pyridin-3-yl)methyl)-2-methoxy-8-methylquinoline-4-carbonitrile]
0.37 µM | 94% | 0.36 µM | – | Cn1cncc1C(O)(c1ccc2nc(C(F)(F)F)c(-c3ccccc3)c(C#N)c2c1)c1ccccn1 (stereo not drawn) [Example 118, 6-(Hydroxy(1-methyl-1H-imidazol-5-yl)(pyridin-2-yl)methyl)-3-phenyl-2-(trifluoromethyl)quinoline-4-carbonitrile•TFA]
0.2 µM | 100% | 0.074 µM | – | Cn1cncc1C(O)(c1ccc2nc(C(F)(F)F)c(-c3ccccc3)c(C(F)(F)F)c2c1)c1ccccn1 (racemic) [Example 185a, (1-Methyl-1H-imidazol-5-yl)(3-phenyl-2,4-bis(trifluoromethyl)quinolin-6-yl)(pyridin-2-yl)methanol]
2.2 µM | 85% | 5 µM | – | OC(c1ccc(Cl)cc1)(c1cccnc1)c1ccc2nc(-c3cccnc3)c(-c3ccccc3)c(Cl)c2c1 (stereo not drawn) [Example 151, (4-Chloro-3-phenyl-2-(pyridin-3-yl)quinolin-6-yl)(4-chlorophenyl)(pyridin-3-yl)methanol]
